From patent publication US20250163104A1, “MACROCYCLIC IMMUNOMODULATORS” (priority 2021, published 2025)
Where a SMILES comes first, the peptide text is derived from it. Bridges are numbered along the chain shown (N, C = ends). [ ]: non-standard residue; d: D form. ξ: configuration not given here. Bip(3'-COOH) = N[C@@H](Cc1ccc(-c2cccc(C(=O)O)c2)cc1)C(=O)O; Bip = N[C@@H](Cc1ccc(-c2ccccc2)cc1)C(=O)O; Cha = N[C@@H](CC1CCCCC1)C(=O)O; Ile(3ξ) = CCC(C)[C@H](N)C(=O)O; Orn = NCCC[C@H](N)C(=O)O; Dab = NCC[C@H](N)C(=O)O

Each compound was assayed against T1, human PD-1 / PD-L1-Ig binding on Jurkat cell line over-expressing human PD-1 (Jurkat-PD-1) (Homo sapiens, UniProt Q15116) (assay: Jurkat-PD-1 Cell Binding High-Content Screening Assay (CBA)). Conditions: Jurkat-PD-1 cells, PE-labeled PD-L1-Ig 20 nM final; read-out: Jurkat HPD1_PDL1 IC50.
T1 construct: expressed in transfected cells; host or cells: Jurkat
Assay type: cell-based
Method in brief: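 Jurkat cells over-expressing human PD-1, in DMEM/10% FCS, pre-incubated with compound 2 h at 37° C. PE-labeled human PD-L1-Ig (20 nM final) added for 1 h; cells fixed in paraformaldehyde with Hoechst 33342 nuclear stain, washed, and bound fluorescence quantified by high-content imaging.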

T1 sequence (Q15116 25-288): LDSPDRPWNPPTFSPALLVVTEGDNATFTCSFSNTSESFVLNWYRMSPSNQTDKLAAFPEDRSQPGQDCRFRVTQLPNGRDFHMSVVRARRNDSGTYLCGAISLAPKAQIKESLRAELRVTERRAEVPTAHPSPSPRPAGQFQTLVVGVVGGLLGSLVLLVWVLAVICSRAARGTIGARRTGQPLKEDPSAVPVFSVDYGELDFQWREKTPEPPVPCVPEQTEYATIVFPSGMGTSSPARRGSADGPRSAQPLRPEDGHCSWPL

`CC(C)C[C@H]1NC(=O)[C@H](CCCN)NC(=O)[C@H](CCC(=O)O)NC(=O)[C@H](Cc2ccc(-c3ccccc3)cc2)NC(=O)[C@H](C(C)C)NC(=O)[C@H](Cc2ccccc2F)NC(=O)[C@H](CC(=O)O)NC(=O)[C@H](Cc2ccc(C#N)cc2)NC(=O)[C@H](CN)NC(=O)CSC[C@@H](C(=O)N[C@@H](C)C(N)=O)NC(=O)[C@H]([C@@H](C)O)NC(=O)[C@H](C(C)C)NC(=O)[C@H](CC2CCCCC2)NC(=O)[C@H](CCN)NC1=O` [Compound 2214] and `CC(C)C[C@H]1NC(=O)[C@H](CCCN)NC(=O)[C@H](CCC(=O)O)NC(=O)[C@H](Cc2ccc(-c3ccccc3)cc2)NC(=O)[C@H](C(C)C)NC(=O)[C@H](Cc2ccccc2F)NC(=O)[C@H](CC(=O)O)NC(=O)[C@H](Cc2ccc(C#N)cc2)NC(=O)[C@H](Cc2ccncc2)NC(=O)CSC[C@@H](C(=O)N[C@@H](C)C(N)=O)NC(=O)[C@H]([C@@H](C)O)NC(=O)[C@H](C(C)C)NC(=O)[C@H](CC2CCCCC2)NC(=O)[C@H](CCN)NC1=O` [Compound 2216] are within 1.5-fold of each other in IC50: 15.4 nM for the first, 19.3 nM for the second.

`CC(C)C[C@H]1NC(=O)[C@H](CCCN)NC(=O)[C@H](CCC(=O)O)NC(=O)[C@H](Cc2ccc(-c3ccccc3)cc2)NC(=O)[C@H](C(C)C)NC(=O)[C@H](Cc2ccccc2F)NC(=O)[C@H](CC(=O)O)NC(=O)[C@H](Cc2ccc(C#N)cc2)NC(=O)[C@H](Cc2ccc(OCC(=O)O)cc2)NC(=O)CSC[C@@H](C(=O)N[C@@H](C)C(N)=O)NC(=O)[C@H]([C@@H](C)O)NC(=O)[C@H](C(C)C)NC(=O)[C@H](CC2CCCCC2)NC(=O)[C@H](CCN)NC1=O` [Compound 2215] and `CCC(C)[C@@H]1NC(=O)[C@H](Cc2ccc(-c3ccccc3)cc2)NC(=O)[C@H](C(C)C)NC(=O)[C@H](Cc2c[nH]c3ccccc23)NC(=O)[C@H](CC(=O)O)NC(=O)[C@H](Cc2ccc(-c3cccc(C(=O)O)c3)cc2)NC(=O)[C@H](Cc2ccc(OCC(=O)O)cc2)NC(=O)CSC[C@@H](C(=O)N[C@@H](C)C(N)=O)NC(=O)[C@H]([C@@H](C)O)NC(=O)[C@H](C(C)C)NC(=O)[C@H](CC2CCCCC2)NC(=O)[C@H](CCN)NC(=O)[C@@H](CC(C)C)NC(=O)[C@H](CCCN)NC1=O` (stereo partly shown) [Compound 2220] are within 1.5-fold of each other in IC50: 30.4 nM for the first, 34.6 nM for the second.

`CCC(C)[C@@H]1NC(=O)[C@H](Cc2ccc(-c3ccccc3)cc2)NC(=O)[C@H](C(C)C)NC(=O)[C@H](Cc2c[nH]c3ccccc23)NC(=O)[C@H](CC(=O)O)NC(=O)[C@H](Cc2ccc(-c3cccc(C(=O)O)c3)cc2)NC(=O)[C@H](CC(N)=O)NC(=O)CSC[C@@H](C(=O)N[C@@H](C)C(N)=O)NC(=O)[C@H]([C@@H](C)O)NC(=O)[C@H](C(C)C)NC(=O)[C@H](CC2CCCCC2)NC(=O)[C@H](CCN)NC(=O)[C@@H](CC(C)C)NC(=O)[C@H](CCCN)NC1=O` (stereo partly drawn) [Compound 2217] ({CH2CO}-N[Bip(3'-COOH)]DWV[Bip][Ile(3ξ)][Orn][dL][Dab][Cha]VTCA-NH2; thioether N-14) and `CCC(C)[C@@H]1NC(=O)[C@H](Cc2ccc(-c3ccccc3)cc2)NC(=O)[C@H](C(C)C)NC(=O)[C@H](Cc2c[nH]c3ccccc23)NC(=O)[C@H](CC(=O)O)NC(=O)[C@H](Cc2ccc(-c3cccc(C(=O)O)c3)cc2)NC(=O)[C@H](CN)NC(=O)CSC[C@@H](C(=O)N[C@@H](C)C(N)=O)NC(=O)[C@H]([C@@H](C)O)NC(=O)[C@H](C(C)C)NC(=O)[C@H](CC2CCCCC2)NC(=O)[C@H](CCN)NC(=O)[C@@H](CC(C)C)NC(=O)[C@H](CCCN)NC1=O` (stereo partly shown) [Compound 2219] are within 1.5-fold of each other in IC50: 16.8 nM for the first, 13.4 nM for the second.

First: CCC(C)[C@@H]1NC(=O)[C@H](Cc2ccc(-c3ccccc3)cc2)NC(=O)[C@H](C(C)C)NC(=O)[C@H](Cc2c[nH]c3ccccc23)NC(=O)[C@H](CC(=O)O)NC(=O)[C@H](Cc2ccc(-c3cccc(C(=O)O)c3)cc2)NC(=O)[C@H](Cc2ccccc2)NC(=O)CSC[C@@H](C(=O)N[C@@H](C)C(N)=O)NC(=O)[C@H]([C@@H](C)O)NC(=O)[C@H](C(C)C)NC(=O)[C@H](CC2CCCCC2)NC(=O)[C@H](CCN)NC(=O)[C@@H](CC(C)C)NC(=O)[C@H](CCCN)NC1=O (stereo partly drawn) [Compound 2218] ({CH2CO}-F[Bip(3'-COOH)]DWV[Bip][Ile(3ξ)][Orn][dL][Dab][Cha]VTCA-NH2; thioether N-14)
Second: CCC(C)[C@@H]1NC(=O)[C@H](Cc2ccc(-c3ccccc3)cc2)NC(=O)[C@H](C(C)C)NC(=O)[C@H](Cc2c[nH]c3ccccc23)NC(=O)[C@H](CC(=O)O)NC(=O)[C@H](Cc2ccc(-c3cccc(C(=O)O)c3)cc2)NC(=O)[C@H](Cc2ccncc2)NC(=O)CSC[C@@H](C(=O)N[C@@H](C)C(N)=O)NC(=O)[C@H]([C@@H](C)O)NC(=O)[C@H](C(C)C)NC(=O)[C@H](CC2CCCCC2)NC(=O)[C@H](CCN)NC(=O)[C@@H](CC(C)C)NC(=O)[C@H](CCCN)NC1=O (stereo partly shown) [Compound 2221]
The IC50 of the first is 1.6-fold higher: 50.1 nM for the first, 32.1 nM for the second.

First: CCC(C)[C@@H]1NC(=O)[C@H](Cc2ccc(-c3ccccc3)cc2)NC(=O)[C@H](C(C)C)NC(=O)[C@H](Cc2cccc(C)c2)NC(=O)[C@H](CC(=O)O)NC(=O)[C@H](Cc2ccc(-c3cccc(C(=O)O)c3)cc2)NC(=O)[C@H](CC(N)=O)NC(=O)CSC[C@@H](C(=O)N[C@@H](C)C(N)=O)NC(=O)[C@H]([C@@H](C)O)NC(=O)[C@H](C(C)C)NC(=O)[C@H](CC2CCCCC2)NC(=O)[C@H](CCN)NC(=O)[C@@H](CC(C)C)NC(=O)[C@H](CCCN)NC1=O (stereo partly shown) [Compound 2222]
Second: CCC(C)[C@@H]1NC(=O)[C@H](Cc2ccc(-c3ccccc3)cc2)NC(=O)[C@H](C(C)C)NC(=O)[C@H](Cc2cccc(C)c2)NC(=O)[C@H](CC(=O)O)NC(=O)[C@H](Cc2ccc(-c3cccc(C(=O)O)c3)cc2)NC(=O)[C@H](CN)NC(=O)CSC[C@@H](C(=O)N[C@@H](C)C(N)=O)NC(=O)[C@H]([C@@H](C)O)NC(=O)[C@H](C(C)C)NC(=O)[C@H](CC2CCCCC2)NC(=O)[C@H](CCN)NC(=O)[C@@H](CC(C)C)NC(=O)[C@H](CCCN)NC1=O (stereo partly shown) [Compound 2224]
The IC50 of the first is 1.8-fold higher: 25 nM for the first, 14.1 nM for the second. The second is the more potent here.

First: CCC(C)[C@@H]1NC(=O)[C@H](Cc2ccc(-c3ccccc3)cc2)NC(=O)[C@H](C(C)C)NC(=O)[C@H](Cc2cccc(C)c2)NC(=O)[C@H](CC(=O)O)NC(=O)[C@H](Cc2ccc(-c3cccc(C(=O)O)c3)cc2)NC(=O)[C@H](Cc2ccccc2)NC(=O)CSC[C@@H](C(=O)N[C@@H](C)C(N)=O)NC(=O)[C@H]([C@@H](C)O)NC(=O)[C@H](C(C)C)NC(=O)[C@H](CC2CCCCC2)NC(=O)[C@H](CCN)NC(=O)[C@@H](CC(C)C)NC(=O)[C@H](CCCN)NC1=O (stereo partly shown) [Compound 2223]
Second: CCC(C)[C@@H]1NC(=O)[C@H](Cc2ccc(-c3ccccc3)cc2)NC(=O)[C@H](C(C)C)NC(=O)[C@H](Cc2cccc(C)c2)NC(=O)[C@H](CC(=O)O)NC(=O)[C@H](Cc2ccc(-c3cccc(C(=O)O)c3)cc2)NC(=O)[C@H](Cc2ccncc2)NC(=O)CSC[C@@H](C(=O)N[C@@H](C)C(N)=O)NC(=O)[C@H]([C@@H](C)O)NC(=O)[C@H](C(C)C)NC(=O)[C@H](CC2CCCCC2)NC(=O)[C@H](CCN)NC(=O)[C@@H](CC(C)C)NC(=O)[C@H](CCCN)NC1=O (stereo partly shown) [Compound 2226]
The IC50 of the first is 2.9-fold higher: 74.8 nM for the first, 25.4 nM for the second. The second is the more potent here.

`CCC(C)[C@@H]1NC(=O)[C@H](Cc2ccc(-c3ccccc3)cc2)NC(=O)[C@H](C(C)C)NC(=O)[C@H](Cc2cccc(C)c2)NC(=O)[C@H](CC(=O)O)NC(=O)[C@H](Cc2ccc(-c3cccc(C(=O)O)c3)cc2)NC(=O)[C@H](Cc2ccc(OCC(=O)O)cc2)NC(=O)CSC[C@@H](C(=O)N[C@@H](C)C(N)=O)NC(=O)[C@H]([C@@H](C)O)NC(=O)[C@H](C(C)C)NC(=O)[C@H](CC2CCCCC2)NC(=O)[C@H](CCN)NC(=O)[C@@H](CC(C)C)NC(=O)[C@H](CCCN)NC1=O` (stereo partly shown) [Compound 2225] showed an IC50 of 182 nM.
